Assays:
Conditions in all cases: 37 °C
[1] = target: T1, Prostaglandin E2 receptor EP4 subtype (Rattus norvegicus, UniProt P43114); experiment: cAMP Assay
Procedure: Seed cells on an EP2 or EP4 STEP plate at a density of 40,000-80,000 cells/well in 200 uL of reduced serum medium containing 0.5% FBS. Place the plate in a 37° C. incubator with 5% CO2 and incubate overnight. […] After 16-18 hours of incubation, aspirate the culture media from each well. […] Add 200 ul of culture medium containing 500 uM IBMX (an inhibitor of cAMP phosphodiesterase) and different concentration of test compounds to the assigned wells. For each test compound, at least 8 concentrations starting at highest 10 M and lowest 0.01 pM were tested. In addition each concentration had triplicates. […] Incubate the cells in a cell culture incubator for 30 minutes. […] Centrifuge the plate at 1,000x rpm for 10 minutes. […] Aspirate the supernatant.

[2] = target: T1, Prostaglandin E2 receptor EP4 subtype; experiment: SEAP Activity Assay
Procedure: (§1) 1. Seed cells on an EP2 or EP4 STEP plate at a density of 40,000-80,000 cells/well in 200 ul of reduced serum medium containing 0.5% FBS. Place the plate in a 37° C. incubator with 5% CO2 and incubate overnight. 2. After 16-18 hours of incubation, aspirate the culture media from each well. 3. Add 200 ul of culture medium containing different concentration of test compounds to the assigned wells. For each test compound, at least 8 concentrations starting at highest 10 M and lowest 0.01 pM were tested. In addition each concentration had triplicates. […] 4. […] Cover the plate with the lid.

[3] = target: Prostaglandin E2 receptor EP2 subtype (Rattus norvegicus, UniProt Q62928); experiment: SEAP Activity Assay
Sequence of Prostaglandin E2 receptor EP2 subtype (Q62928 whole entry): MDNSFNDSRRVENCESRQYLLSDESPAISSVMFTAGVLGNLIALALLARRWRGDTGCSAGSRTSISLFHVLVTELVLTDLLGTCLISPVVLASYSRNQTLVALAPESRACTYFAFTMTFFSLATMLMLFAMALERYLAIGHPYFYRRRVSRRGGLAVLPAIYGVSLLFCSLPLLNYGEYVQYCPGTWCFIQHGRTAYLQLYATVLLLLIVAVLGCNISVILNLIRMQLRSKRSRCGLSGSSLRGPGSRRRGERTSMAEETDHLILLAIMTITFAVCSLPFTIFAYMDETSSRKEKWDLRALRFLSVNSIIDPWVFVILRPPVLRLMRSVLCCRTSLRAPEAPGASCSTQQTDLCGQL
Procedure: as §1

T1 sequence (P43114 whole entry): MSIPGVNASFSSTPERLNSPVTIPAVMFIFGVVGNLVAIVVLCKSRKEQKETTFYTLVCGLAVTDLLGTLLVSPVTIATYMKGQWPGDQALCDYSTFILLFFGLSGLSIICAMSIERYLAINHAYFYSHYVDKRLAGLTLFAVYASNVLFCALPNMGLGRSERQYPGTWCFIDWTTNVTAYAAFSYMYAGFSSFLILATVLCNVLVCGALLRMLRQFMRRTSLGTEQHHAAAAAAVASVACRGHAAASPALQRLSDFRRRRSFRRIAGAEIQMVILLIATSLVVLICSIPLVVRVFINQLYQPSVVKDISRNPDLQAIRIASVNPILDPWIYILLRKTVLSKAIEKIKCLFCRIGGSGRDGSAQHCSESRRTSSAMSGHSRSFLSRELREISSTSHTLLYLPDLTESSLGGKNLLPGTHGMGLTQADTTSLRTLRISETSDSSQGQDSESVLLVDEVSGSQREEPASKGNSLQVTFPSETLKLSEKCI

| SMILES | EC50 [1] | EC50 [2] | EC50 [3] |
| --- | --- | --- | --- |
| CCC#CC[C@H](C)[C@H](O)/C=C/[C@H]1CC(F)(F)C(=O)N1CCCc1ccc(C(=O)O)s1 [US9180116, 24D] | 0.73 nM | 0.11 nM | 763 nM |
| C[C@@H](CCc1ccccc1)[C@H](O)/C=C/[C@H]1CC(F)(F)C(=O)N1CCCc1ccc(C(=O)O)s1 [US9180116, 37C] | 0.15 nM | – | – |
| C[C@@H](CCc1ccccc1)[C@@H](O)/C=C/[C@H]1CC(F)(F)C(=O)N1CCCc1ccc(C(=O)O)s1 [US9180116, 37D] | 198 nM | – | 743 nM |

From BindingDB's records for patent US9180116 (Cayman Chemical, 2015)
